From US6916933B2, “4-pyridinyl-n-acyl-l-phenylalanines” (Hoffman-La Roche Inc., priority 1999, dated 2005)

Columns and labels:
[1] = molecular target: T1, VLA-4 (α4β1 integrin) binding to immobilized VCAM-1 (Homo sapiens, UniProt P05556+P13612); assay: VLA-4/VCAM-1 Screening Assay (solid-phase, dual antibody ELISA); settings: Ramos cell-derived VLA-4, recombinant human VCAM-1 coated plates, 1 mM MnCl2
T1 construct: followed by 10 μl of Ramos cell-derived VLA-4; endogenous in cells; host or cells: Ramos cells (VLA-4 preparation derived from the cells)
T1 sequence (P13612 34-1032): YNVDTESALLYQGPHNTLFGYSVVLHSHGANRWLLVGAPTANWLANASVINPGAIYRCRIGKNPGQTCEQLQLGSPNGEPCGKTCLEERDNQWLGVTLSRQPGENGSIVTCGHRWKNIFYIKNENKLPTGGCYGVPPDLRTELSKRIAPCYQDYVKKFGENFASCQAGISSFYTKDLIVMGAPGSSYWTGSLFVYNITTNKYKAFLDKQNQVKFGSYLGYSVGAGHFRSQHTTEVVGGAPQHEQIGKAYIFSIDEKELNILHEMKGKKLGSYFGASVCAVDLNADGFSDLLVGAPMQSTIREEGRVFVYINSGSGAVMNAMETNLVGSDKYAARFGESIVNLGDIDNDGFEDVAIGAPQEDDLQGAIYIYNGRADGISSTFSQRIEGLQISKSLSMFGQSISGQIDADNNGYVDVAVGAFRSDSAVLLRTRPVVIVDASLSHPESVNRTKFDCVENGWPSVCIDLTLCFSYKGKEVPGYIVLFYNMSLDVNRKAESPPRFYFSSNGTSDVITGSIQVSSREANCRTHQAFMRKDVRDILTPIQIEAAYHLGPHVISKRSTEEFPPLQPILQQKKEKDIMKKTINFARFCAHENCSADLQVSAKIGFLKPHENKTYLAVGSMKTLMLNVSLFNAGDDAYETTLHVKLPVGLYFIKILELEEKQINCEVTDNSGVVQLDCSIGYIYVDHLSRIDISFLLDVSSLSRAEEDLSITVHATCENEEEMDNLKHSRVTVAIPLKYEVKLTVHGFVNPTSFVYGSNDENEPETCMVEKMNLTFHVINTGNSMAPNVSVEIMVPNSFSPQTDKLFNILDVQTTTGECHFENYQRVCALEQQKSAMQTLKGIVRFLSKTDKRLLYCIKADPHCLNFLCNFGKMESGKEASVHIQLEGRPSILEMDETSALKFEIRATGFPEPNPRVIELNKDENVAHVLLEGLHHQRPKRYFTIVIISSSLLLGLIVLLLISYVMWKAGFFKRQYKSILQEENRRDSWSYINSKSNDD
T1 sequence (P05556 21-798): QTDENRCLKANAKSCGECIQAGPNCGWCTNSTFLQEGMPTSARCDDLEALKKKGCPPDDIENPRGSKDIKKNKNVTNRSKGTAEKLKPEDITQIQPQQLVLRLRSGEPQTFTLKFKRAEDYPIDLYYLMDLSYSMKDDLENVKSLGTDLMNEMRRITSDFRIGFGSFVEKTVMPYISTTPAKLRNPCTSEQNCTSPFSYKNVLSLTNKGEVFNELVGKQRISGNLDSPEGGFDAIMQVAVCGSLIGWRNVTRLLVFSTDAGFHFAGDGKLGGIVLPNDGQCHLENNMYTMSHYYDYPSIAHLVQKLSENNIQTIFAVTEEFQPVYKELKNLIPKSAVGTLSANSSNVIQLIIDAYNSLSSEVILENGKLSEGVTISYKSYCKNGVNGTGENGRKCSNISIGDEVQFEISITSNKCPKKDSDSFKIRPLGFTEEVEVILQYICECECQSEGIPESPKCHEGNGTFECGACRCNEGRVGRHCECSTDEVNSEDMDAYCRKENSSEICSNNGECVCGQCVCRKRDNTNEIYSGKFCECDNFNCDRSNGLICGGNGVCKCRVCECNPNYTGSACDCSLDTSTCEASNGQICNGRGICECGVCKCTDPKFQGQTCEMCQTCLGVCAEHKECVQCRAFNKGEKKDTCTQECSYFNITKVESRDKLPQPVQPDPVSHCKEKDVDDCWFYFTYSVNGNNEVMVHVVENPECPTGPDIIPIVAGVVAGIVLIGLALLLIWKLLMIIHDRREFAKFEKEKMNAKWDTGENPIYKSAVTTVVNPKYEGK
Procedure: VLA-4/VCAM-1 Screening Assay
VLA-4 antagonist activity, defined as ability to compete for binding to immobilized VCAM-1, was quantitated using a solid-phase, dual antibody ELISA. VLA-4 (α4β1 integrin) bound to VCAM-1 was detected by a complex of anti-integrin β1 antibody: HRP-conjugated anti-mouse IgG: chromogenic substrate (K-Blue). Initially, this entailed coating 96 well plates (Nunc Maxisorp) with recombinant human VCAM-1 (0.4 μg in 100 μl PBS), sealing each plate and then allowing the plates to stand at 4° C. for ^˜18 hr. […] On the day of assay, all plates were washed twice with VCAM Assay Buffer (200 μl/well of 50 mM Tris-HCl, 100 mM NaCl, 1 mM MnCl2, 0.05% Tween 20; pH 7.4). Test compounds were dissolved in 100% DMSO and then diluted 1:20 in VCAM Assay Buffer supplemented with 1 mg/mL BSA (i.e., final DMSO=5%). A series of 1:4 dilutions were performed to achieve a concentration range of 0.005 nM-1.563 μM for each test compound. 100 μl per well of each dilution was added to the VCAM-coated plates, followed by 10 μl of Ramos cell-derived VLA-4. These plates were sequentially mixed on a platform shaker for 1 min, incubated for 2 hr at 37° C., and then washed four times with 200 μl/well VCAM Assay Buffer. 100 μl of mouse anti-human integrin β1 antibody was added to each well (0.6 μg/mL in VCAM Assay Buffer+1 mg/mL BSA) and allowed to incubate for 1 hr at 37° C. At the conclusion of this incubation period, all plates were washed four times with VCAM Assay Buffer (200 μl/well). A corresponding second antibody, HRP-conjugated goat anti-mouse IgG (100 μl per well @ 1:800 dilution in VCAM Assay Buffer+1 mg/mL BSA), was then added to each well, followed by a 1 hr incubation at room temperature and concluded by three washes (200 μl/well) with VCAM Assay Buffer. Color development was initiated by addition of 100 μl K-Blue per well (15 min incubation, room temp) and terminated by addition of 100 μl Red Stop Buffer per well. All plates were then read in a UV/V is spectrophotometer at 650 nM. Results were calculated as % inhibition of total binding (i.e., VLA-4+VCAM-1 in the absence of test compound).
The results are provided in the following Table I (A=IC50<1 nM, B=IC50<10 nM): […]

[2] = molecular target: T2, cell-surface VLA-4 (α4β1 integrin) on Ramos cells binding to immobilized VCAM-1 (Homo sapiens, UniProt P05556+P13612); assay: Ramos (VLA-4)/VCAM-1 Cell-Based Screening Assay (cell adhesion); settings: Calcein-AM labeled Ramos cells, VCAM-1 coated plates
T2 construct: Ramos cells bearing cell-surface VLA-4; endogenous in cells; host or cells: Ramos cells (VLA-4); VCAM-1 partner made in CHO cells
T2 sequence (P13612 34-1032): as the sequence (P13612 34-1032) above
T2 sequence (P05556 21-798): as the sequence (P05556 21-798) above
Procedure: Ramos (VLA-4)/VCAM-1 Cell-Based Screening Assay Protocol
Soluble recombinant human VCAM-1 (mixture of 5- and 7-Ig domain) was purified from CHO cell culture media by immunoaffinity chromatography and maintained in a solution containing 0.1 M Tris-glycine (pH 7.5), 0.1 M NaCl, 5 mM EDTA, 1 mM PMSF, […] NaN3 and 10 μg/mL leupeptin. Calcein-AM was purchased from Molecular Probes Inc.
VLA-4 (α4β1 integrin) antagonist activity, defined as ability to compete with cell-surface VLA-4 for binding to immobilized VCAM-1, was quantitated using a Ramos-VCAM-1 cell adhesion assay. Ramos cells bearing cell-surface VLA-4, were labeled with a fluorescent dye (Calcein-AM) and allowed to bind VCAM-1 in the presence or absence of test compounds. A reduction in fluorescence intensity associated with adherent cells (% inhibition) reflected competitive inhibition of VLA-4 mediated cell adhesion by the test compound.
Initially, this entailed coating 96 well plates (Nunc Maxisorp) with recombinant human VCAM-1 (100 ng in 100 μl PBS), sealing each plate and allowing the plates to stand at 4° C. for ≈18 hr. The VCAM-coated plates were subsequently washed twice with 0.05% Tween-20 in PBS, and then blocked for 1 hr (room temperature) with 200 μl of Blocking Buffer (1% BSA/0.02% thimerosal) to reduce non-specific binding. Following the incubation with Blocking Buffer, plates were inverted, blotted and the remaining buffer aspirated. Each plate was then washed with 300 μl PBS, inverted and the remaining PBS aspirated.
Test compounds were dissolved in 100% DMSO and then diluted 1:25 in VCAM Cell Adhesion Assay Buffer (4 mM CaCl2, 4 mM MgCl2 in 50 mM TRIS-HCl, pH 7.5) (final DMSO=4%). A series of eight 1:4 dilutions were performed for each compound (general concentration range of 1 nM-12,500 nM). 100 μl/well of each dilution was added to the VCAM-coated plates, followed by 100 μl of Ramos cells (200,000 cells/well in 1% BSA/PBS). Plates containing test compounds and Ramos cells were allowed to incubate for 45 min at room temperature, after which 165 μl/well PBS was added. Plates were inverted to remove non-adherent cells, blotted and 300 μL/well PBS added. Plates were again inverted, blotted and the remaining buffer gently aspirated. 100 μl Lysis Buffer (0.1% SDS in 50 mM TRIS-HCl, pH 8.5) was added to each well and agitated for 2 min on a rotary shaking platform. The plates were then read for fluorescence intensity on a Cytofluor 2300 (Millipore) fluorecence measurement system (excitation=485 nm, emission=530 nm).
The results are provided in the following Table II (A=IC50<100 nM, B=IC50<10000 nM, C=IC50<5,000 nM): […]

`Cc1cccc(Cl)c1C(=O)N[C@@H](Cc1ccc(-c2cc(Cl)cn(C)c2=O)cc1)C(=O)O` [Example 8, N-[(2-chloro-6-methylphenyl)carbonyl]-4-(5-chloro-1-methyl-2-oxo-3-pyridinyl)-L-phenylalanine] was tested, and the IC50 [1] was under 1 nM and the IC50 [2] was under 10000 nM.

For `COCCC1(C(=O)N[C@@H](Cc2ccc(-c3cc(Cl)cn(C)c3=O)cc2)C(=O)O)CCCC1` [Example 10, 4-(5-chloro-1-methyl-2-oxo-3-pyridinyl)-N-[[1-(2-methoxyethyl)cyclopentyl]carbonyl]-L-phenylalanine], the IC50 [1] was under 10 nM and the IC50 [2] was under 10000 nM.

With `Cc1cccc(Cl)c1C(=O)N[C@@H](Cc1ccc(-c2cc(Cl)cn(Cc3ccccc3)c2=O)cc1)C(=O)O` [Example 15, 4-(1-Benzyl-5-chloro-2-oxo-3-pyridinyl)-N-[(2-chloro-6-methylphenyl)carbonyl]-L-phenylalanine] the IC50 [1] was under 10 nM and the IC50 [2] was under 5000 nM.

`COCCC1(C(=O)N[C@@H](Cc2ccc(-c3cc(Cl)cn(Cc4ccccc4)c3=O)cc2)C(=O)O)CCCC1` [Example 17, 4-(1-Benzyl-5-chloro-2-oxo-3-pyridinyl)-N-[[1-(2-methoxyethyl)cyclopentyl]carbonyl]-L-phenylalanine] showed an IC50 [1] of under 10 nM.

With `COc1ccc(Br)c(C(=O)N[C@@H](Cc2ccc(-c3cccn(C)c3=O)cc2)C(=O)O)c1` [Example 24, N-[(2-bromo-5-methoxyphenyl)carbonyl]-4-(1-methyl-2-oxo-3-pyridinyl)-L-phenylalanine] the IC50 [1] was under 1 nM and the IC50 [2] was under 10000 nM.

Compound `COc1ccc(Br)c(C(=O)N[C@@H](Cc2ccc(-c3cc(Br)cn(C)c3=O)cc2)C(=O)O)c1` [Example 28, N-[(2-bromo-5-methoxyphenyl)carbonyl]-4-(5-bromo-1-methyl-2-oxo-3-pyridinyl)-L-phenylalanine] has an IC50 [1] of under 1 nM and an IC50 [2] of under 5000 nM.
